Laboratory results taken from patent publication US6921773B2, “Use of α-1AR subtype-selective drugs in patients with acute myocardial infarction” (Duke University, priority 1999, dated 2005).
Entries after “also recorded” stand apart in the source; their conditions may differ. Values belong to the compound of their own block, whether it stands above or below them.

What was measured:
human mammary artery = assay: Phenylephrine-induced mammary artery contraction (isometric tension, organ chambers), with or without a1AR antagonists; settings: for Kb: read-out: Potency in inhibiting mammary artery contraction (pKB) (converted); for Shift of phenylephrine dose response by antagonist: prazosin 10^-9 and 10^-8 mol/L, 5-MU/spiperone/BMY7378 10^-8 and 10^-7 mol/L
Text: Mammary arteries were immersed in cold oxygenated Krebs-Ringer bicarbonate solution (118.3 mmol/L NaCl, 4.7 mmol/L KCl, 1.2 mmol/L MgSO4, 1.2 mmol/L KHPO4, […], 25 mmol/L NaHCO3, […], […]), cleaned of loose connective tissue, cut into 4-5 mm long rings, and suspended for isometric tension recording in organ chambers. One stirrup was anchored to the chamber and the other connected to a strain gauge (FT-102) for measurement of isometric force (MacLab, CB Sciences; Milford, Mass.). All concentration effect curves were performed at optimum resting tone (˜3 g in pilot studies). Contractile response to 60 mmol/L KCI was performed; this determined vessel viability and facilitated normalization of phenylephrine response across vessel rings. Phenylephrine dose-response curves were generated (10^−4-10^−9mol/L) in ½ log order concentrations in the absence/presence of competitive a1AR antagonists. […] Antagonist potency was expressed as the dissociation constant (KB) determined from pKB=log[B]log(DR-1), where [B] is antagonist concentration and DR the dose ratio produced by antagonist. Dose response curves were analyzed using DOSE RESPONSE software (MacLab, CB Sciences).

a1AR subtypes = assay: Competition analysis against [125I]HEAT in human vessel membranes; type: binding; settings: mammary, renal, splenic arteries, and vena cava; n=3 experiments per vessel
Protocol: (§1) Vessels were weighed, lumen diameter measured, pulverized under liquid nitrogen, and suspended in cold lysis buffer (5 mmol/L Tris HCl and 5 mmol/L EDTA, pH 7.4) with protease inhibitors.^14 After lysate preparation, membranes were resuspended in cold binding buffer (150 mmol/L NaCl, 50 mmol/L Tris·HCl, 5 mmol/L EDTA, with protease inhibitors, pH 7.4) as previously described;^14 protein concentration was determined using the bicinchoninic acid method (Pierce, Rockford, Ill.). Full saturation binding isotherms were performed in selected human vessels (aorta, mammary artery, saphenous vein) in 250 μl binding buffer (20-60 μg vessel membrane protein) using the α1-adrenergic antagonist [^125I]HEAT(2-[b-(hydroxy-3[^125I]iodophenyl)ethyl-aminomethyl]-tetralone; DuPont-NEN; Boston, Mass.) as previously described.^14 To measure total a1AR density in all vessels, a saturating concentration (300 pmol/L) of the [^125I]HEAT was used.

[1] = elderly patients; compared with alfuzosin (non-selective); cited from earlier work
a1AR = assay: [125I]HEAT saturation binding isotherms in human vessel membranes; settings: n=2-4
Protocol: as §1

[2] = Homo sapiens, phenylephrine dose response curves, mean±SEM

Compound: COc1cc2nc(N3CCN(C(=O)c4ccco4)CC3)nc(N)c2cc1OC [prazosin]
Kb (human mammary artery; [2]): 0.631 nM | Shift of phenylephrine dose response by antagonist (human mammary artery): concentration dependent shift in potency without reducing maximum response

EC50 (human mammary artery; Homo sapiens, 10 mammary arteries, mean±SEM, read-out: pD2 of isometric contraction (converted)): 1000 nM
Compound: CNC[C@H](O)c1cccc(O)c1 [Phenylephrine]

Compound: COc1ccccc1N1CCN(CCN2C(=O)CC3(CCCC3)CC2=O)CC1 [BMY7378]
Shift of phenylephrine dose response by antagonist (human mammary artery): does not produce a significant shift; also recorded: does not produce a shift in dose response

Number of binding sites in competition analysis (a1AR subtypes): binds to two sites
Compound: COc1ccccc1N1CCN(CCCNc2c(C)c(=O)n(C)c(=O)n2C)CC1 [5-MU]
Potency in inhibiting mammary artery contraction (pKB) (human mammary artery; phenylephrine dose response curves, mean±SEM): 8.4±0.63 | Shift of phenylephrine dose response by antagonist (human mammary artery): concentration dependent shift in potency without reducing maximum response

Compound: CCOc1ccccc1OCCN[C@H](C)Cc1ccc(OC)c(S(N)(=O)=O)c1 [tamsulosin]
Blood pressure perturbation [1]: less blood pressure perturbation

Kd (a1AR; aorta): 0.13 ± 0.0002 nM | Kd (a1AR; mammary artery): 0.13 ± 0.0031 nM | Kd (a1AR; saphenous vein): 0.13 ± 0.00065 nM
Compound: O=C1c2ccccc2CCC1CNCCc1ccc(O)c(I)c1 (stereo not shown) [^125I-HEAT, 2-[b-(hydroxy-3[^125I]iodophenyl)ethyl-aminomethyl]-tetralone]

Compound: O=C(CCCN1CCC2(CC1)C(=O)NCN2c1ccccc1)c1ccc(F)cc1 [spiperone]
Kb (human mammary artery; [2]): 2.51 nM | Shift of phenylephrine dose response by antagonist (human mammary artery): concentration dependent shift in potency without reducing maximum response
